# Patent publication US5698529A, “Chemotherapeutic compositions” (Supratek Pharma, Inc., priority 1996, dated 1997)
# Like-named read-outs stand apart in the source and are kept apart here.
# Tests used:
# [1] = test system: MCF-7AU; test: Cytotoxicity against daunorubicin/verapamil-resistant MCF-7AU not expressing P-170; format: cell-based, human
# From the text: The daunorubicin composition of Example 3 {Prep. […] B}.
# [2] = test system: SKVLB cells; test: Cytotoxic activity of plasma of inoculated mice on SKVLB cells; format: cell-based, human
# Protocol: (§1) Anti-neoplastic activity is determined by evaluation of the cytotoxic activity of plasma of mammals inoculated with the test composition (see de Valeriola et el., Cancer Chemother. Pharmacol. 29, 133-140, 1991).
# (§2) Groups (6 animals/group) of C57B1/6 7-week-old female mice are inoculated i.v. (via the tail vein) with free or micellar (N=1.3) daunorubicin obtained as described in Example 3 {Prep. B and Prep. A, respectively}. Drug concentrations (MTD) are adjusted so that a maximum volume of 0.1 mL is injected in each mouse. The experiment is repeated twice.
# (§3) To obtain plasma samples, blood (10 μl) is collected from the tail artery one hour after drug administration, diluted 1:10 with sterile RPMI 1640 medium, and centrifuged at 400 g for 15 minutes. […] The cells are incubated for two hours at 37° C. and 5% CO2, and then washed three times with RPMI 1640. The pretreated cells are incubated in RPMI 1640 supplemented with 10% fetal calf serum at 37° C. and 5% CO2 for three days, after which cytotoxicity is determined as described in Example 1.
# (§4) The procedure of Example 16 is repeated utilizing SKVLB and SRVO3 cells.
# [3] = test system: human T-lymphoma (Jurkat) cells; test: IC50 at intervals of drug contact, Jurkat cells, Example 5; format: cell-based
# Protocol: Measurements are made at the indicated intervals of the drug contact with the cells from 15 minutes to 12 hours.
# [4] = test system: normal human mononuclear cells; test: Cytotoxicity in normal human mononuclear cells, Example 4; format: cell-based
# Protocol: (§5) B. Human ovarian carcinoma cells (CRL157) are precultured in 1% solution of the same block copolymer but without daunorubicin in RPMI 1640 medium supplemented with 10% calf fetal serum. The preparation of part A is added and the mixture is incubated for 60 minutes at 37° C. and the cells then washed three times with RPMI 1640 and cultured in RPMI 1640 supplemented with 10% calf fetal serum for 3 days {Prep. A}. Cytotoxicity is measured, both for this preparation and a parallel preparation of free daunorubicin {Prep. B}, using the method of Alley et al., Cancer Res., 48, 589-601 (1988). The results are as follows:
# A. A 1:1.5 mixture of block copolymers of poly(oxyethylene)-poly(oxypropylene) (pluronics P-85 and L-64) having individual ratios (n) of (oxypropylene) to (oxyethylene) blocks of 1.00 and 1.50, respectively, and a combined value (N) of 1.30, is diluted with RPMI 1640 medium to a final concentration of 2.0% at 4° C. The mixture is incubated for 30 minutes at 37° C. and then sterilely filtered through a 0.22 μm filter. An equal volume of a solution of 200 μg daunorubicin in RPMI 1640 medium is added and this mixture is incubated for 30 minutes at 37° C.
# Daunorubicin in the composition of Example 3 is evaluated for cytotoxicity in (i) human T-lymphoma (Jurkat) cells as described in Example 1 and (ii) normal human mononuclear cells.
# [5] = test system: SKVO3 cells; test: Cytotoxic activity of plasma of inoculated mice on SKVO3 cells; format: cell-based, human
# Protocol: as §1, §2, §3, §4
# [6] = test system: human small cell carcinoma of lung (H-69); test: Cytotoxicity to human small cell carcinoma of lung (H-69), Example 1; format: cell-based
# Protocol: (§6) A. A block copolymer of poly(oxyethylene)-poly(oxypropylene) in which N=0.25 (Pluronic F-68) is diluted with RPMI 1640 medium to a final concentration of 2.0% at 4° C. The mixture is incubated for 30 minutes at 37° C. and then sterilely filtered through a 0.22 μm filter. An equal volume of a solution of 200 μg daunorubicin in RPMI 1640 medium is added and this mixture is incubated for 30 minutes at 37° C.
# as §5
# Following the same procedure, cytotoxicity is determined against human small cell carcinoma of lung (H-69): […]
# [7] = test system: human T-lymphoma (Jurkat) cells; test: Cytotoxicity to human T-lymphoma (Jurkat) cells, Example 1; format: cell-based
# Protocol: as §6, §5
# Following the same procedure, cytotoxicity is determined against human T-lymphoma (Jurkat) cells: […]
# [8] = test system: SKVLB cells; test: cells; format: cell-based; settings: Homo sapiens
# From the text: (§7) The antineoplastic agent vinblastine is incorporated into the block copolymer mixture described in Example 3.
# (§8) The antineoplastic agent mitomycin C is incorporated into the block copolymer mixture described in Example 3.
# (§9) The antineoplastic agent methotrexate is incorporated into the block copolymer mixture described in Example 3.
# (§10) The antineoplastic agent daunorubicin is incorporated into the block copolymer mixture described in Example 3.
# [9] = test system: SKVO3 cells; test: cells; format: cell-based; settings: Homo sapiens; SKVO3, drug-sensitive; read-out: IC50
# From the text: as §7, §8, §9, §10
# [10] = MTD in mice; settings: mouse, in vivo, ip, C57B1/6 female mice, 14 days
# From the text: B and Prep. A, respectively}, and are observed for 14 days.
# The MTD is defined as a dose which leads to no daunorubicin-deaths (any higher dose leads to the daunorubicin-related death of at least 1 animal per group). The experiment is repeated twice. The results are reproducible with less that 10% variation.
# [11] = plasma dilution 1:20, 10 mg/kg daunorubicin
# [12] = plasma dilution 1:20, MTD of daunorubicin
# [13] = plasma dilution 1:200, 10 mg/kg daunorubicin
# [14] = plasma dilution 1:200, MTD of daunorubicin
# [15] = plasma dilution 1:2000, 10 mg/kg daunorubicin
# [16] = plasma dilution 1:2000, MTD of daunorubicin
compound,measurement,setting,value
"COc1cccc2c1C(=O)c1c(O)c3c(c(O)c1C2=O)C[C@@](O)(C(C)=O)C[C@@H]3O[C@H]1C[C@H](N)[C@H](O)[C@H](C)O1 [Prep. B, daunorubicin]",inhibition at 0.016 µg/mL,[1]; Homo sapiens,3%
same,inhibition at 0.08 µg/mL,[1]; Homo sapiens,9%
same,inhibition at 0.4 µg/mL,[1]; Homo sapiens,37%
same,inhibition at 2 µg/mL,[1]; Homo sapiens,65%
same,inhibition at 10 µg/mL,[1]; Homo sapiens,89%
same,inhibition at 50 µg/mL,[1]; Homo sapiens,100%
same,IC50 (in words),"[1]; resistant line MCF-7AU, statement for both resistant lines",higher IC50 's (is less toxic)
same,"Inhibition, %",[2]; [11],8%
same,"Inhibition, %",[2]; [12],0%
same,"Inhibition, %",[2]; [13],0%
same,"Inhibition, %",[2]; [14],0%
same,"Inhibition, %",[2]; [15],0%
same,"Inhibition, %",[2]; [16],0%
same,IC50,[3]; 0.25 h,0.12 µg/mL
same,IC50,"[3]; 0.5 h, drug contact 0.50 hours, read-out: IC50",0.068 µg/mL
same,IC50,[3]; 0.75 h,0.035 µg/mL
same,IC50,[3]; 1 h,0.025 µg/mL
same,IC50,[3]; 2 h,0.019 µg/mL
same,IC50,[3]; 4 h,0.016 µg/mL
same,IC50,[3]; 8 h,0.003 µg/mL
same,IC50,[3]; 12 h,0.0052 µg/mL
same,inhibition at 0.0032 µg/mL,[4],1%
same,inhibition at 0.016 µg/mL,[4],18%
same,inhibition at 0.08 µg/mL,[4],23%
same,inhibition at 0.4 µg/mL,[4],58%
same,inhibition at 2 µg/mL,[4],80%
same,inhibition at 10 µg/mL,[4],100%
same,inhibition at 50 µg/mL,[4],100%
same,"Inhibition, %",[5]; [11],22%
same,"Inhibition, %",[5]; [12],9%
same,"Inhibition, %",[5]; [13],6%
same,"Inhibition, %",[5]; [14],0%
same,"Inhibition, %",[5]; [15],0%
same,"Inhibition, %",[5]; [16],0%
same,inhibition at 0.0032 µg/mL,[6],20%
same,inhibition at 0.016 µg/mL,[6],42%
same,inhibition at 0.08 µg/mL,[6],69%
same,inhibition at 0.4 µg/mL,[6],91%
same,inhibition at 2 µg/mL,[6],100%
same,inhibition at 10 µg/mL,[6],100%
same,inhibition at 50 µg/mL,[6],100%
same,inhibition at 0.0032 µg/mL,[7],22%
same,inhibition at 0.016 µg/mL,[7],44%
same,inhibition at 0.08 µg/mL,[7],51%
same,inhibition at 0.4 µg/mL,[7],84%
same,inhibition at 2 µg/mL,[7],100%
same,inhibition at 10 µg/mL,[7],100%
same,inhibition at 50 µg/mL,[7],100%
same,IC50,[8],5.85 µg/mL
same,IC50,[9],0.62 µg/mL
same,MTD at 336 h,[10],2 mg/kg
